Like-named read-outs stand apart in the source and are kept apart here.
Tests used:
[1] = molecular target: FP receptor (Homo sapiens, UniProt P43088); conditions: background statement; cited from earlier work
[2] = cynomolgus monkeys; cited from earlier work
[3] = treated for about three or more months; cited from earlier work
[4] = molecular target: FP-receptor (Felis catus, UniProt A0ABI7XJ69); test: Functional FP-receptor study, cat iris sphincter muscle contraction; format: cell-based; conditions: for EC50: text restating Table I, read-out: concentration needed to stimulate the FP-receptor at 50% efficacy
Chain of FP-receptor (A0ABI7XJ69 entry or part of it): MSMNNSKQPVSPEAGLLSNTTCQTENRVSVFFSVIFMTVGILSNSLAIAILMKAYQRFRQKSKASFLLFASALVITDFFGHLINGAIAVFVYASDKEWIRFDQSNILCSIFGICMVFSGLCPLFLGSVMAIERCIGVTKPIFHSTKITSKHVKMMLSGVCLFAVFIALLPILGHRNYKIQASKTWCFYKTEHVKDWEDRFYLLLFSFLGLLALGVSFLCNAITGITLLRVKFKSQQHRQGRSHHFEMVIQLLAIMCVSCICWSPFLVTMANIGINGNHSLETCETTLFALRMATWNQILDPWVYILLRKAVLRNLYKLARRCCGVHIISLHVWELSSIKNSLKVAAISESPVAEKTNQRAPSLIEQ
Method: Functional FP-receptor studies were performed using iris sphincter muscles from cat eyes. The eyes were either used directly after enucleation or stored in ice cold saline overnight. The iris sphincter muscles were prepared, cut in halfs, and mounted in thermostated (37° C.) tissue baths with oxygenated modified Kreb's solution containing indomethacin (2.8×10^−6 M), atropine (10^−7 M) and propranolol (10^−7 M). A resting tension of 150 mg was applied, and the contractile force was measured isometrically after cumulative dosing of test compounds. A manual or automated tissue bath system (Buxco, STC 400) was used for the experiments. For each tissue sample the maximal response was normalized to 100%. The mean response of two to four different preparations was calculated.
(§1) Concentration-effect curves were fitted to the data using the logistic sigmoid function.

[5] = tested on: prostaglandin receptor sites in bovine corpus luteal membranes; test: Ligand binding assay in bovine corpus luteal membranes; conditions: for displacement of bound 3H-unoprostone isopropyl by unlabeled competing ligand: competition studies; for binding to PG receptor sites: in words
Method: (§2) In ligand binding studies, the specificity of labeled unoprostone isopropyl and the metabolite binding to prostaglandin receptor sites in bovine corpus luteal membranes was determined. This tissue expresses most of the PG receptors including an abundance of FP receptors. In signal transduction studies, the mobilization of intracellular calcium using Fluorescence Imaging technique in the primary culture of human ciliary muscle cells and cyclic AMP generation in rabbit iris-ciliary body was measured.
This method is well described in the literature. […] Free unbound ligands were separated by rapid filtration using a millipore filtration assembly. Membrane bound radioactivity retained by the filter was counted. It is important to define the following terms for appreciation of the binding data:
Total binding is defined as the amount bound in the absence of unlabeled ligand.
Specific binding is defined as the binding displaced by unlabeled ligand.
Non-specific binding is the binding not displaced by unlabeled ligand.

[6] = tested on: human ciliary muscle cells; test: Intracellular calcium mobilization (Fura 2-AM) in human ciliary muscle cells; format: cell-based; conditions: for affinity for EP1 or FP or TP receptors: suggested by inability to mobilize intracellular calcium
Method: as §2
Human ciliary muscle cells at confluency were loaded with Fura 2-AM. Cells in a petri dish were put in a jacketed chamber mounted on the microscope platform. The chamber was maintained at 37° C. by thermostatically controlled water circulating through the chamber jacket. The cells were then exposed to the excitation wavelengths of 334 and 380 nm with an emission wavelength of 510 nm. Cells were perfused with HEPES buffer with or without test compounds. The intracellular calcium was visualized and photographed using Attofluor RatioVision software program and Zeiss fluorescence microscope.

[7] = tested on: PGF2α receptors; conditions: free acid form; contraction of cat iris sphincter; cited from earlier work
[8] = molecular target: T1, PGF2α receptors (Bos taurus, UniProt P37289); conditions: free acid form; bovine corpus luteum; cited from earlier work
T1 construct: host or cells: bovine corpus luteum
T1 sequence (P37289 whole entry): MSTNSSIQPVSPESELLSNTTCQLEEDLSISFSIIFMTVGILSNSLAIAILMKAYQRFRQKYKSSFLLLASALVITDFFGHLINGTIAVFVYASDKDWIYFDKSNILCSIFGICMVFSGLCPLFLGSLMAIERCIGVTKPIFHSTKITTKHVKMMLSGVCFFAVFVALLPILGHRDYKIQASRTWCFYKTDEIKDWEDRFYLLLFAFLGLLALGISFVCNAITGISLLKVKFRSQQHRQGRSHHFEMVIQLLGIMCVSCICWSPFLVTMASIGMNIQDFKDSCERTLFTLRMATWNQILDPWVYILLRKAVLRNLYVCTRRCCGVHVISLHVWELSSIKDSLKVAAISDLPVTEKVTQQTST

[9] = long-term monkey trial, preliminary published results; cited from earlier work
[10] = molecular target: T2, EP3-receptors (Cavia porcellus, UniProt A0A286XLZ9); test: EP3-receptor activity, guinea-pig vas deferens; format: cell-based; conditions: for EC50: smooth muscle bath, guinea-pig vas deferens
T2 sequence (A0A286XLZ9 with tags, fused parts or gaps): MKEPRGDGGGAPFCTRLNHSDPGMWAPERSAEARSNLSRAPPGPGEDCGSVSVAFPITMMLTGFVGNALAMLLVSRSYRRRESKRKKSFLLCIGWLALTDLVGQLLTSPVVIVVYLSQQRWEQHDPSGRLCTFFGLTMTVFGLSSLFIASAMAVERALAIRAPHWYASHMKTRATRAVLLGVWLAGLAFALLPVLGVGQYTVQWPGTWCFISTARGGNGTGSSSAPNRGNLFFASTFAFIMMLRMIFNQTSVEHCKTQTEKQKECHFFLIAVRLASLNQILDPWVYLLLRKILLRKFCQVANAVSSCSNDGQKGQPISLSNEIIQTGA
Method: Guinea-pig vas deferens was used to assess the effect on EP3-receptors. Tissue segments of about 10 mm were mounted in tissue baths and the experiments were performed essentially in the same way as described for the guinea-pig circular ileum. Concentration-effect curves were fitted to the data using the logistic sigmoid function.

[11] = molecular target: T3, EP1-receptor (Bos taurus, UniProt F1MUY4); test: EP1-receptor activity, bovine iris sphincter muscle; format: cell-based
T3 sequence (F1MUY4 1-407): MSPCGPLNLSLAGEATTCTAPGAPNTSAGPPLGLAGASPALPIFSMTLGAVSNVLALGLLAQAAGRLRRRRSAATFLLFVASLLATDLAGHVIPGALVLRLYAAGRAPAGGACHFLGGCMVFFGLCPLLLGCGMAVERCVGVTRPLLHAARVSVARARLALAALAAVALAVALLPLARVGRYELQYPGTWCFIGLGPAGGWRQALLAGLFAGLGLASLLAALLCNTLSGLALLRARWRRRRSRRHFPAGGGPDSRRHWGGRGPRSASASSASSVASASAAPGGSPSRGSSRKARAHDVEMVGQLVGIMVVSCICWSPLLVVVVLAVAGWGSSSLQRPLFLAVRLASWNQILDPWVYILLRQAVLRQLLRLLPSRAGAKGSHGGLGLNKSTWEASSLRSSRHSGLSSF
Source text: Iris sphincter muscles from bovine eyes were used for studies of EP1-receptor responses. Freshly enucleated bovine eyes were transported on ice from a slaughterhouse.
as §1

[12] = molecular target: EP2-receptors (Cavia porcellus, UniProt A0A286XDB1); test: EP2-receptor activity, guinea-pig ileum twitch inhibition; format: cell-based; conditions: for EC50: smooth muscle bath, guinea-pig ileum
Chain of EP2-receptors (A0A286XDB1 1-359): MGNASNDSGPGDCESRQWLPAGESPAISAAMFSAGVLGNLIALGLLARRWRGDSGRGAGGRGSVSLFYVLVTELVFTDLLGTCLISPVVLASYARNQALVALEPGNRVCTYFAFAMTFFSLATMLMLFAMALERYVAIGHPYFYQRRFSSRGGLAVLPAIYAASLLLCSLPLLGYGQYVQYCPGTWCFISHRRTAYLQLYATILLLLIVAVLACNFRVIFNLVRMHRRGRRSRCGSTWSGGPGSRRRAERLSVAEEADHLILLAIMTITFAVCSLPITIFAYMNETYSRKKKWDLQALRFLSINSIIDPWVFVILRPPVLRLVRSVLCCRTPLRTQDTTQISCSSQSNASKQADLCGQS
Source text: Segments of guinea-pig ileum were used to study the effect on EP2-receptors. Male guinea pigs were killed with a blow to the head and bled from the carotid arteries. Circular rings (2-3 mm wide) were taken from the ileum about 10 cm from the caecum, A resting tension of 1 g was applied and the preparation was stimulated by using a Gras S88 stimulator delivering trains of square pulses (frequency 7.5 Hz, pulse duration 0.1 msec, train duration 4 sec) to two parallel platinum electrodes in the bath. The voltage over the electrodes was approximately 20V, and the interval between trains was 100 seconds. The peak contractile force at each stimulation train was measured. Test compounds were added cumulatively, and the inhibitory effect on the muscle twitch was evaluated. […] Concentration-effect curves were fitted to the data using the logistic sigmoid function.

[13] = concentrations ranging from 10-1000 nM
[14] = competing ligand unoprostone isopropyl 2.5 μM
[15] = competing ligand unoprostone isopropyl 5.0 μM
[16] = competing ligand unoprostone isopropyl 8.0 μM
[17] = competing ligand unoprostone isopropyl 16.0 μM
[18] = competing ligand PGF2α 0.062 μM
[19] = radioligand conc. 8.0 nM (3H-PGF2α)

Chain of FP receptor (P43088 whole entry): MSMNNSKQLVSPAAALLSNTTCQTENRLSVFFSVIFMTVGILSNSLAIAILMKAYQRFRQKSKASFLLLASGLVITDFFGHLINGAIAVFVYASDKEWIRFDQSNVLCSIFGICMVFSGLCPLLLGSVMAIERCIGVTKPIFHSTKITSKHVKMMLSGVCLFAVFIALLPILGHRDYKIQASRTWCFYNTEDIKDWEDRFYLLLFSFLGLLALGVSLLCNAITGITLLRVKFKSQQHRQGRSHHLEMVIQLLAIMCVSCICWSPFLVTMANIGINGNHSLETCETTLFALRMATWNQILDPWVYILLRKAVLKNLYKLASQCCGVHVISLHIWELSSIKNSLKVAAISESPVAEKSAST

CC(C)OC(=O)CCC/C=C\C[C@@H]1[C@@H](CC[C@@H](O)CCc2ccccc2)[C@H](O)C[C@@H]1O [Latanoprost, 13,14-dihydro-17-phenyl-18,19,20-trinor PGF2α isopropyl ester]
specific binding affinity for the FP receptor [1]: substantial specific binding affinity
iridial pigmentation [2]: induced increased iridial pigmentation
human patients with brown pigmentation of the iris [3]: ≥ 10%
receptor selectivity (FP vs other prostaglandin receptors) ([4]; from Table I): selective agonist for the FP receptor

CCCC1([C@H](O)C/C=C/[C@H]2[C@H](O)CC(=O)[C@@H]2CCCCCCC(=O)OC)CCC1 [Butaprost]
displacement of bound 3H-unoprostone isopropyl by unlabeled competing ligand [5]: did not displace

CCCCCCCC(=O)CC[C@@H]1[C@@H](C/C=C\CCCC(=O)O)[C@@H](O)C[C@H]1O [metabolite]
binding to PG receptor sites [5]: does not bind
mobilization of intracellular calcium [6, 13]: did not mobilize
affinity for EP1 or FP or TP receptors [6]: no affinity
agonistic activity to PGF2α receptors relative to PGF2α [7]: 1/1600
binding inhibitory activity relative to PGF2α [8]: 1/280

O=C(O)CCCCCCC1C(=O)NC(=O)N1CCC(O)C1CCCCC1 (stereo not shown) [BW245C]
displacement of bound 3H-unoprostone isopropyl by unlabeled competing ligand [5]: did not displace

CCCCCC(O)C=CC1C(O)CC(=O)C1CC=CCCCC(=O)OC(C)C (stereo not shown) [PGE2-IE]
iridial pigmentation [2]: induced increased iridial pigmentation

CCCCC[C@H](O)/C=C/[C@@H]1[C@@H](C/C=C\CCCC(=O)O)[C@H]2CO[C@@H]1C2 [U46619]
displacement of bound 3H-unoprostone isopropyl by unlabeled competing ligand [5]: did not displace

CC#CCC(C)[C@H](O)/C=C/[C@@H]1[C@H]2C/C(=C/CCCC(=O)O)C[C@H]2C[C@H]1O (stereo partly shown) [iloprost]
displacement of bound 3H-unoprostone isopropyl by unlabeled competing ligand [5]: did not displace

CCCCC[C@H](O)/C=C/[C@@H]1[C@@H](C/C=C\CCCC(=O)OC(C)C)[C@@H](O)C[C@H]1O [PGF2α-IE]
iridial pigmentation [2]: induced increased iridial pigmentation

CCCCCCCC(=O)CC[C@@H]1[C@@H](C/C=C\CCCC(=O)OC(C)C)[C@@H](O)C[C@H]1O [unoprostone isopropyl, 13,14-dihydro-15-keto-20-ethyl PGF2α isopropyl ester]
specific binding to bovine corpus luteal membranes (in words) [5]: no specific binding sites
Total Binding ([5]; at 5 minutes): 21.0 fmoles/mg protein
Specific Binding of 3H-unoprostone isopropyl [5, 14]: 0
Total 3H-unoprostone isopropyl binding [5, 14]: 7.0 ƒmoles/mg protein
Specific Binding of 3H-unoprostone isopropyl [5, 15]: 0
Total 3H-unoprostone isopropyl binding [5, 15]: 6.5 ƒmoles/mg protein
Specific Binding of 3H-unoprostone isopropyl [5, 16]: 0
Total 3H-unoprostone isopropyl binding [5, 16]: 6.7 ƒmoles/mg protein
Specific Binding of 3H-unoprostone isopropyl [5, 17]: 0
Total 3H-unoprostone isopropyl binding [5, 17]: 7.6 ƒmoles/mg protein
displacement of bound 3H-unoprostone isopropyl by unlabeled competing ligand [5]: did not displace
binding to DP, EP1, EP2, EP3, IP and TP receptor sites ([5]; concluded from competition studies): does not bind
binding to PG receptor sites [5]: does not bind
specific binding to bovine corpus luteal membranes (in words) ([5]; listed as 3H-unoprostone isopropyl): no specific binding
Total Binding ([5]; membrane protein conc. 50 μg): 13.0 ± 2.0 (3) fmoles/mg protein
Total Binding ([5]; membrane protein conc. 100 μg): 23.0 ± 6.0 (3) fmoles/mg protein
Total Binding ([5]; membrane protein conc. 200 μg): 32.0 ± 8.0 (3) fmoles/mg protein
Specific Binding ([5]; radioligand conc. 8.0 nM): 0 fmoles/mg protein
Total Binding ([5]; radioligand conc. 8.0 nM): 19.4 ± 2.0 ƒmoles/mg protein
Specific Binding ([5]; radioligand conc. 16.0 nM): 0 fmoles/mg protein
Total Binding ([5]; radioligand conc. 16.0 nM): 25.5 ± 4.0 ƒmoles/mg protein
Specific Binding ([5]; radioligand conc. 32.0 nM): 0 fmoles/mg protein
Total Binding ([5]; radioligand conc. 32.0 nM): 40.0 ± 7.0 ƒmoles/mg protein
change of total binding with time ([5]; up to 60 minutes): did not increase with time
iridic pigmentation [9]: no iridic pigmentation
mobilization of intracellular calcium [6, 13]: did not mobilize
affinity for EP1 or FP or TP receptors [6]: no affinity

17-Phenyl trinor PGE1
displacement of bound 3H-unoprostone isopropyl by unlabeled competing ligand [5]: did not displace

O=C(O)CCCC=CCC1C(O)CC(O)C1CCC(=O)CCc1ccccc1 (stereo not shown) [15-keto Latanoprost Acid]
activity on EP3 receptor ([10]; in words): virtually no activity
EC50 [10]: > 100 µM
activity on EP1 receptor ([11]; in words): virtually no activity
EC50 ([11]; read-out: EC50 EP1, smooth muscle bath, bovine iris sphincter): 28 µM
activity on EP2 receptor ([12]; in words): virtually no activity
EC50 [12]: > 100 µM
potency on the FP receptor relative to latanoprost acid ([4]; from Table I EC50 values): at least ten times less potent
EC50 [4]: 0.26 µM

O=C(O)CCC/C=C\C[C@@H]1[C@@H](/C=C/[C@@H](O)COc2cccc(C(F)(F)F)c2)[C@H](O)C[C@@H]1O (racemic) [Fluprostenol]
mobilization of intracellular calcium ([6]; FP receptor agonist control, concentration not given): mobilized calcium

CCCCC[C@H](O)/C=C/[C@@H]1[C@@H](C/C=C\CCCC(=O)O)[C@@H](O)C[C@H]1O [PGF2α]
specific binding to bovine corpus luteal membranes (in words) [5]: bound specifically
Specific Binding (3H-PGF2α) [5, 18]: 0.07 fmoles/mg Protein
Total 3H-PGF2α binding [5, 18]: 0.56 fmol/mg protein
Specific Binding (3H-PGF2α) ([5]; competing ligand PGF2α 0.25 μM): 0.15 fmoles/mg Protein
Total 3H-PGF2α binding ([5]; competing ligand PGF2α 0.25 μM): 0.56 fmol/mg protein
Specific Binding (3H-PGF2α) ([5]; competing ligand PGF2α 0.5 μM): 0.25 fmoles/mg Protein
Total 3H-PGF2α binding ([5]; competing ligand PGF2α 0.5 μM): 0.56 fmol/mg protein
Specific Binding (3H-PGF2α) ([5]; competing ligand PGF2α 8.0 μM): 0.42 fmoles/mg Protein
Total 3H-PGF2α binding ([5]; competing ligand PGF2α 8.0 μM): 0.56 fmol/mg protein
displacement of bound 3H-unoprostone isopropyl by unlabeled competing ligand [5]: did not displace
Specific Binding ([5]; radioligand conc. 2.0 nM): 120.0 ± 15.0 fmoles/mg protein
Total Binding ([5]; radioligand conc. 2.0 nM): 150.0 ± 16.0 fmoles/mg protein
Total Binding ([5]; radioligand conc. 4.0 nM): 325.0 ± 25.0 fmoles/mg protein
Specific Binding [5, 19]: 423.0 ± 40.0 fmoles/mg protein
Total Binding [5, 19]: 505.0 ± 75.0 fmoles/mg protein

O=C(O)CCC/C=C\C[C@@H]1[C@@H](CC[C@@H](O)CCc2ccccc2)[C@H](O)C[C@@H]1O [Latanoprost Acid]
EC50 [10]: 28 µM
EC50 [12]: 530 µM
EC50 [4]: 0.01 µM

— US20010056104A1, “Treatment of ocular hypertension and glaucoma” (priority 2000, published 2001)
